# In patent US9125388B2, “Biological control” (Isis Innovation Limited, priority 1999, dated 2015):
# System: Yp3 tTa, tRe Ras64B^V12 on the 2nd chromosome
# Test: Recombinant chromosome experiments / maternal transmission of Tc (Table 1): parents raised on supplement, progeny on normal food, adults by sex
# Format: in vivo, Drosophila melanogaster
# Conditions: for ♀ progeny emerging as adults / ♂ progeny emerging as adults: 25° C.
# Experimental: 40-45 young females and 20-25 young males raised at 25° C. upon food with the indicated tetracycline supplement were allowed to mate, then transferred to normal (tetracycline-free) food after 3-4 days. These flies were transferred to fresh vials of normal food every day for 12 days, then removed on the 13th day. All the vials were incubated at 25° C. while the progeny developed. The numbers of male and female progeny emerging as adults in each vial were recorded.
# A standard range of additive concentrations were used in the following experiments (0.05-20 μg/ml). […] (=“not done”)
# All the preceding experiments were performed at 25° C., the standard temperature for Drosophila culture. However, the insects in the wild would clearly be exposed to varying temperatures, so we investigated the extent to which the efficiency of the system is affected by temperature. As with the recombinant chromosome experiments, 40-45 young virgin females and 20-25 young males raised at 25° C. upon food with the indicated tetracycline supplement were allowed to mate, then transferred to normal (tetracycline-free) food after 3-4 days. These flies were transferred to fresh vials of normal food every day. The numbers of male and female progeny emerging as adults in each vial were recorded. These experiments were performed at either 18° C. or 29° C.
# We used a strain of Drosophila in which females, but not males, require Tc for viability.
# A strain homozygous for second chromosome insertions of both Yp3-tTA and tRe-Ras64B^V12 was tested for the effect of parental dietary Tc. 40-45 young females and 20-25 young males raised at 25° C. upon food with the indicated tetracycline supplement were allowed to mate, then transferred to normal (tetracycline-free) food after 3-4 days. These flies were transferred to fresh vials of normal food every day for 12 days, and then removed on the 13th day. All the vials were incubated at 25° C. while the progeny developed. The total numbers of male and female progeny emerging as adults were recorded.
# [1] = parents raised on Tc 0.1 μg/ml, Day 8 on normal food
# [2] = parents raised on Tc 0.1 μg/ml, Day 9 on normal food
# [3] = parents raised on Tc 0.1 μg/ml, Day 10 on normal food
# [4] = parents raised on Tc 0.1 μg/ml, Day 11 on normal food
# [5] = parents raised on Tc 0.1 μg/ml, Day 12 on normal food
# [6] = parents raised on Tc 0.1 μg/ml, Total of Days 1-12 on normal food
# [7] = parents raised on Tc 1 μg/ml, Day 8 on normal food
# [8] = parents raised on Tc 1 μg/ml, Day 9 on normal food
# [9] = parents raised on Tc 1 μg/ml, Day 10 on normal food
# [10] = parents raised on Tc 1 μg/ml, Day 11 on normal food
# [11] = parents raised on Tc 1 μg/ml, Day 12 on normal food
# [12] = parents raised on Tc 1 μg/ml, Total of Days 1-12 on normal food
# [13] = parents raised on Tc 5 μg/ml, Day 8 on normal food
# [14] = parents raised on Tc 5 μg/ml, Total of Days 1-12 on normal food
# [15] = parents raised on Tc 20 μg/ml, Day 1 on normal food
# [16] = parents raised on Tc 20 μg/ml, Day 2 on normal food
# [17] = parents raised on Tc 20 μg/ml, Day 3 on normal food
# [18] = parents raised on Tc 20 μg/ml, Day 4 on normal food
# [19] = parents raised on Tc 20 μg/ml, Day 5 on normal food
# [20] = parents raised on Tc 20 μg/ml, Day 6 on normal food
# [21] = parents raised on Tc 20 μg/ml, Day 7 on normal food
# [22] = parents raised on Tc 100 μg/ml, Day 1 on normal food
# [23] = parents raised on Tc 100 μg/ml, Day 2 on normal food
# [24] = parents raised on Tc 100 μg/ml, Day 3 on normal food
# [25] = parents raised on Tc 100 μg/ml, Day 4 on normal food
# [26] = parents raised on Tc 100 μg/ml, Day 5 on normal food
# [27] = parents raised on Tc 100 μg/ml, Day 6 on normal food
# [28] = parents raised on Tc 100 μg/ml, Day 7 on normal food
# [29] = parents raised on Tc 500 μg/ml, Day 1 on normal food
# [30] = parents raised on Tc 500 μg/ml, Day 2 on normal food
# [31] = parents raised on Tc 500 μg/ml, Day 3 on normal food
# [32] = parents raised on Tc 500 μg/ml, Day 4 on normal food
# [33] = parents raised on Tc 500 μg/ml, Day 5 on normal food
# [34] = parents raised on Tc 500 μg/ml, Day 6 on normal food
# [35] = parents raised on Tc 500 μg/ml, Day 7 on normal food
# [36] = parents raised on Tc 1000 μg/ml, Day 1 on normal food
# [37] = parents raised on Tc 1000 μg/ml, Day 2 on normal food
# [38] = parents raised on Tc 1000 μg/ml, Day 3 on normal food
# [39] = parents raised on Tc 1000 μg/ml, Day 4 on normal food
# [40] = parents raised on Tc 1000 μg/ml, Day 5 on normal food
# [41] = parents raised on Tc 1000 μg/ml, Day 6 on normal food
# [42] = parents raised on Tc 1000 μg/ml, Day 7 on normal food
# [43] = parents raised on Tc 2000 μg/ml, Day 1 on normal food
# [44] = parents raised on Tc 2000 μg/ml, Day 2 on normal food
# [45] = parents raised on Tc 2000 μg/ml, Day 3 on normal food
# [46] = parents raised on Tc 2000 μg/ml, Day 4 on normal food
# [47] = parents raised on Tc 2000 μg/ml, Day 5 on normal food
# [48] = parents raised on Tc 2000 μg/ml, Day 6 on normal food
# [49] = parents raised on Tc 2000 μg/ml, Day 7 on normal food
# [50] = parents raised on tetracycline 0.1 μg/ml, 18° C.
# [51] = parents raised on tetracycline 0.1 μg/ml, 29° C.
# [52] = parents raised on tetracycline 1 μg/ml, 18° C.
# [53] = parents raised on tetracycline 1 μg/ml, 29° C.
# [54] = parents raised on tetracycline 5 μg/ml, 18° C.
# [55] = parents raised on tetracycline 5 μg/ml, 29° C.
structure (smiles),measurement,setting,value
"CN(C)[C@@H]1C(O)=C(C(N)=O)C(=O)[C@@]2(O)C(O)=C3C(=O)c4c(O)cccc4[C@@](C)(O)[C@H]3C[C@@H]12 [Tetracycline, tetracycline]",♀ progeny emerging as adults,[1],0
same,♂ progeny emerging as adults,[1],105
same,♀ progeny emerging as adults,[2],0
same,♂ progeny emerging as adults,[2],133
same,♀ progeny emerging as adults,[3],0
same,♂ progeny emerging as adults,[3],93
same,♀ progeny emerging as adults,[4],0
same,♂ progeny emerging as adults,[4],131
same,♀ progeny emerging as adults,[5],0
same,♂ progeny emerging as adults,[5],121
same,♀ progeny emerging as adults,[6],0
same,♂ progeny emerging as adults,[6],1363
same,♀ progeny emerging as adults,[7],0
same,♂ progeny emerging as adults,[7],90
same,♀ progeny emerging as adults,[8],0
same,♂ progeny emerging as adults,[8],119
same,♀ progeny emerging as adults,[9],0
same,♂ progeny emerging as adults,[9],94
same,♀ progeny emerging as adults,[10],0
same,♂ progeny emerging as adults,[10],98
same,♀ progeny emerging as adults,[11],0
same,♂ progeny emerging as adults,[11],100
same,♀ progeny emerging as adults,[12],0
same,♂ progeny emerging as adults,[12],1360
same,♀ progeny emerging as adults,[13],0
same,♂ progeny emerging as adults,[13],119
same,♂ progeny emerging as adults,"parents raised on Tc 5 μg/ml, Day 9 on normal food",96
same,♀ progeny emerging as adults,"parents raised on Tc 5 μg/ml, Day 12 on normal food",0
same,♀ progeny emerging as adults,[14],0
same,♂ progeny emerging as adults,[14],1384
same,♀ progeny emerging as adults,[15],0
same,♂ progeny emerging as adults,[15],89
same,♀ progeny emerging as adults,[16],0
same,♂ progeny emerging as adults,[16],107
same,♀ progeny emerging as adults,[17],0
same,♂ progeny emerging as adults,[17],107
same,♀ progeny emerging as adults,[18],0
same,♂ progeny emerging as adults,[18],98
same,♀ progeny emerging as adults,[19],0
same,♂ progeny emerging as adults,[19],88
same,♀ progeny emerging as adults,[20],0
same,♂ progeny emerging as adults,[20],102
same,♀ progeny emerging as adults,[21],0
same,♂ progeny emerging as adults,[21],107
same,♀ progeny emerging as adults,[22],0
same,♂ progeny emerging as adults,[22],129
same,♀ progeny emerging as adults,[23],0
same,♂ progeny emerging as adults,[23],136
same,♀ progeny emerging as adults,[24],0
same,♂ progeny emerging as adults,[24],128
same,♀ progeny emerging as adults,[25],0
same,♂ progeny emerging as adults,[25],127
same,♀ progeny emerging as adults,[26],0
same,♂ progeny emerging as adults,[26],135
same,♀ progeny emerging as adults,[27],0
same,♂ progeny emerging as adults,[27],144
same,♀ progeny emerging as adults,[28],0
same,♂ progeny emerging as adults,[28],107
same,♀ progeny emerging as adults,[29],2
same,♂ progeny emerging as adults,[29],136
same,♀ progeny emerging as adults,[30],0
same,♂ progeny emerging as adults,[30],88
same,♀ progeny emerging as adults,[31],0
same,♂ progeny emerging as adults,[31],113
same,♀ progeny emerging as adults,[32],0
same,♂ progeny emerging as adults,[32],113
same,♀ progeny emerging as adults,[33],0
same,♂ progeny emerging as adults,[33],87
same,♀ progeny emerging as adults,[34],0
same,♂ progeny emerging as adults,[34],94
same,♀ progeny emerging as adults,[35],0
same,♂ progeny emerging as adults,[35],109
same,♀ progeny emerging as adults,[36],13
same,♂ progeny emerging as adults,[36],107
same,♀ progeny emerging as adults,[37],5
same,♂ progeny emerging as adults,[37],140
same,♀ progeny emerging as adults,[38],0
same,♂ progeny emerging as adults,[38],110
same,♀ progeny emerging as adults,[39],0
same,♂ progeny emerging as adults,[39],141
same,♀ progeny emerging as adults,[40],0
same,♂ progeny emerging as adults,[40],98
same,♀ progeny emerging as adults,[41],0
same,♂ progeny emerging as adults,[41],129
same,♀ progeny emerging as adults,[42],0
same,♂ progeny emerging as adults,[42],88
same,♀ progeny emerging as adults,[43],32
same,♂ progeny emerging as adults,[43],119
same,♀ progeny emerging as adults,[44],15
same,♂ progeny emerging as adults,[44],102
same,♀ progeny emerging as adults,[45],12
same,♂ progeny emerging as adults,[45],107
same,♀ progeny emerging as adults,[46],9
same,♂ progeny emerging as adults,[46],109
same,♀ progeny emerging as adults,[47],8
same,♂ progeny emerging as adults,[47],109
same,♀ progeny emerging as adults,[48],2
same,♂ progeny emerging as adults,[48],140
same,♀ progeny emerging as adults,[49],0
same,♂ progeny emerging as adults,[49],127
same,Female progeny emerging as adults,[50],2
same,Male progeny emerging as adults,[50],1190
same,Female progeny emerging as adults,[51],0
same,Male progeny emerging as adults,[51],718
same,Female progeny emerging as adults,[52],4
same,Male progeny emerging as adults,[52],1213
same,Female progeny emerging as adults,[53],0
same,Male progeny emerging as adults,[53],753
same,Female progeny emerging as adults,[54],0
same,Male progeny emerging as adults,[54],1058
same,Female progeny emerging as adults,[55],0
same,Male progeny emerging as adults,[55],757
same,parental food concentration leading to survival of a small proportion of female progeny,progeny on media lacking Tc,≥ 500 µg/mL
same,"food concentration sufficient to suppress expression of the toxic gene, allowing both males and females to survive",strain grown on supplemented food,0.1 µg/mL
